From the NIST ThermoML archive (doi:10.1021/je060271a)
Numbers after ± are expanded uncertainties.

Conditions: 343.15 K, Liquid, Vibrating tube method

CCCCCCC(=O)OCC(COC(=O)CCCCCC)(COC(=O)CCCCCC)COC(=O)CCCCCC [pentaerythritol tetraheptanoate]
Conditions | mass density [kg/m3]
7850.3 kPa | 946.4 ± 1.2
7873.8 kPa | 946.5 ± 1.2
7893.3 kPa | 946.5 ± 1.2
7913.5 kPa | 946.6 ± 1.2
7937 kPa | 946.6 ± 1.2
7957 kPa | 946.6 ± 1.2
7977.2 kPa | 946.6 ± 1.2
8001.2 kPa | 946.6 ± 1.2
8021.7 kPa | 946.5 ± 1.2
8042.2 kPa | 946.6 ± 1.2
8067.3 kPa | 946.5 ± 1.2
8088 kPa | 946.6 ± 1.2
8109.4 kPa | 946.6 ± 1.2
8130.2 kPa | 946.6 ± 1.2
8151.8 kPa | 946.6 ± 1.2
8177.7 kPa | 946.8 ± 1.2
8199.3 kPa | 946.8 ± 1.2
8220.8 kPa | 946.7 ± 1.2
8246.2 kPa | 946.7 ± 1.2
8268.1 kPa | 946.7 ± 1.2
8290 kPa | 946.7 ± 1.2
8311.6 kPa | 946.9 ± 1.2
8338.1 kPa | 946.7 ± 1.2
8361.6 kPa | 946.7 ± 1.2
8384.3 kPa | 946.8 ± 1.2
8406.7 kPa | 946.8 ± 1.2
8433.8 kPa | 946.9 ± 1.2
8456.2 kPa | 946.9 ± 1.2
8479.4 kPa | 946.9 ± 1.2
8502.3 kPa | 946.8 ± 1.2
8530.3 kPa | 946.9 ± 1.2
8553.5 kPa | 946.9 ± 1.2
8577.2 kPa | 946.9 ± 1.2
8605.4 kPa | 947 ± 1.2
8629.1 kPa | 947 ± 1.2
8653.2 kPa | 947 ± 1.2
8683.2 kPa | 947 ± 1.2
8702.1 kPa | 947.2 ± 1.2
8731.5 kPa | 947.1 ± 1.2
8755.6 kPa | 947.1 ± 1.2
8780.3 kPa | 947.2 ± 1.2
8809.9 kPa | 947.1 ± 1.2
8834.4 kPa | 947.2 ± 1.2
8864.2 kPa | 947.3 ± 1.2
8889.4 kPa | 947.1 ± 1.2
8914.2 kPa | 947.2 ± 1.2
8939.2 kPa | 947.2 ± 1.2
8970.1 kPa | 947.3 ± 1.2
8995.6 kPa | 947.2 ± 1.2
9022.5 kPa | 947.3 ± 1.2
9053.7 kPa | 947.3 ± 1.2
9079.4 kPa | 947.3 ± 1.2
9110.6 kPa | 947.5 ± 1.2
9136.4 kPa | 947.5 ± 1.2
9163.7 kPa | 947.4 ± 1.2
9195.6 kPa | 947.5 ± 1.2
9222.6 kPa | 947.5 ± 1.2
9249.7 kPa | 947.4 ± 1.2
9282.3 kPa | 947.4 ± 1.2
9309.7 kPa | 947.4 ± 1.2
9337.9 kPa | 947.6 ± 1.2
9371.4 kPa | 947.5 ± 1.2
9400.1 kPa | 947.5 ± 1.2
9428.6 kPa | 947.6 ± 1.2
9456.7 kPa | 947.6 ± 1.2
9491 kPa | 947.7 ± 1.2
9519.9 kPa | 947.6 ± 1.2
9549 kPa | 947.8 ± 1.2
9584 kPa | 947.6 ± 1.2
9613.7 kPa | 947.9 ± 1.2
9649.3 kPa | 947.7 ± 1.2
9679.5 kPa | 947.8 ± 1.2
9709.5 kPa | 947.9 ± 1.2
9739.8 kPa | 947.8 ± 1.2
9777.3 kPa | 947.7 ± 1.2
9809 kPa | 947.8 ± 1.2
9840.2 kPa | 947.9 ± 1.2
9878.1 kPa | 948 ± 1.2
9910.3 kPa | 947.8 ± 1.2
9943.2 kPa | 947.8 ± 1.2
9983.2 kPa | 948 ± 1.2
10018 kPa | 947.9 ± 1.2
10052 kPa | 947.9 ± 1.2
10080 kPa | 948.1 ± 1.2
10104 kPa | 948.1 ± 1.2
10124 kPa | 948 ± 1.2
10144 kPa | 948 ± 1.2
10169 kPa | 948.1 ± 1.2
10189 kPa | 948.2 ± 1.2
10207 kPa | 948.2 ± 1.2
10224 kPa | 948.1 ± 1.2
10244 kPa | 948.2 ± 1.2
10261 kPa | 948.2 ± 1.2
10281 kPa | 948.2 ± 1.2
10298 kPa | 948.3 ± 1.2
10315 kPa | 948.2 ± 1.2
10335 kPa | 948.2 ± 1.2
10352 kPa | 948.3 ± 1.2
10370 kPa | 948.3 ± 1.2
10390 kPa | 948.3 ± 1.2
10408 kPa | 948.2 ± 1.2
10425 kPa | 948.3 ± 1.2
10445 kPa | 948.3 ± 1.2
10463 kPa | 948.3 ± 1.2
10481 kPa | 948.2 ± 1.2
10502 kPa | 948.4 ± 1.2
10520 kPa | 948.3 ± 1.2
10537 kPa | 948.3 ± 1.2
10558 kPa | 948.4 ± 1.2
10576 kPa | 948.3 ± 1.2
10594 kPa | 948.4 ± 1.2
10613 kPa | 948.5 ± 1.2
10635 kPa | 948.4 ± 1.2
10655 kPa | 948.5 ± 1.2
10673 kPa | 948.4 ± 1.2
10692 kPa | 948.5 ± 1.2
10710 kPa | 948.5 ± 1.2
10732 kPa | 948.5 ± 1.2
10750 kPa | 948.5 ± 1.2
10769 kPa | 948.6 ± 1.2
10791 kPa | 948.6 ± 1.2
10810 kPa | 948.6 ± 1.2
10832 kPa | 948.8 ± 1.2
10851 kPa | 948.6 ± 1.2
10870 kPa | 948.6 ± 1.2
10893 kPa | 948.6 ± 1.2
10909 kPa | 948.6 ± 1.2
10932 kPa | 948.7 ± 1.2
10951 kPa | 948.6 ± 1.2
10975 kPa | 948.7 ± 1.2
10994 kPa | 948.7 ± 1.2
11014 kPa | 948.7 ± 1.2
11033 kPa | 948.8 ± 1.2
11056 kPa | 948.7 ± 1.2
11076 kPa | 948.8 ± 1.2
11096 kPa | 948.8 ± 1.2
11120 kPa | 948.9 ± 1.2
11140 kPa | 948.8 ± 1.2
11160 kPa | 948.7 ± 1.2
11184 kPa | 948.8 ± 1.2
11204 kPa | 948.8 ± 1.2
11224 kPa | 948.8 ± 1.2
11245 kPa | 948.8 ± 1.2
11269 kPa | 948.8 ± 1.2
11289 kPa | 948.9 ± 1.2
11310 kPa | 949 ± 1.2
11335 kPa | 948.8 ± 1.2
11356 kPa | 948.9 ± 1.2
11380 kPa | 948.8 ± 1.2
11401 kPa | 949.1 ± 1.2
11422 kPa | 948.9 ± 1.2
11447 kPa | 949 ± 1.2
11469 kPa | 949.1 ± 1.2
11490 kPa | 949 ± 1.2
11511 kPa | 948.9 ± 1.2
11537 kPa | 949.2 ± 1.2
11558 kPa | 949.1 ± 1.2
11584 kPa | 949.2 ± 1.2
11606 kPa | 949.1 ± 1.2
11627 kPa | 949.2 ± 1.2
11649 kPa | 949 ± 1.2
11675 kPa | 949.3 ± 1.2
11697 kPa | 949.1 ± 1.2
11719 kPa | 949.2 ± 1.2
11746 kPa | 949.3 ± 1.2
11768 kPa | 949.2 ± 1.2
11794 kPa | 949.3 ± 1.2
11817 kPa | 949.3 ± 1.2
11840 kPa | 949.2 ± 1.2
11862 kPa | 949.3 ± 1.2
11889 kPa | 949.4 ± 1.2
11911 kPa | 949.2 ± 1.2
11939 kPa | 949.3 ± 1.2
11962 kPa | 949.5 ± 1.2
11985 kPa | 949.4 ± 1.2
12012 kPa | 949.4 ± 1.2
12036 kPa | 949.4 ± 1.2
12060 kPa | 949.5 ± 1.2
12088 kPa | 949.5 ± 1.2
12112 kPa | 949.3 ± 1.2
12136 kPa | 949.5 ± 1.2
12159 kPa | 949.5 ± 1.2
12188 kPa | 949.5 ± 1.2
12212 kPa | 949.6 ± 1.2
12241 kPa | 949.5 ± 1.2
12265 kPa | 949.6 ± 1.2
12290 kPa | 949.5 ± 1.2
12314 kPa | 949.6 ± 1.2
12344 kPa | 949.5 ± 1.2
12368 kPa | 949.6 ± 1.2
12394 kPa | 949.7 ± 1.2
12424 kPa | 949.8 ± 1.2
12449 kPa | 949.7 ± 1.2
12474 kPa | 949.9 ± 1.2
12504 kPa | 949.7 ± 1.2
12530 kPa | 949.7 ± 1.2
12555 kPa | 949.8 ± 1.2
12581 kPa | 949.7 ± 1.2
12612 kPa | 949.9 ± 1.2
12638 kPa | 949.9 ± 1.2
12664 kPa | 949.8 ± 1.2
12695 kPa | 949.8 ± 1.2
12722 kPa | 950 ± 1.2
12750 kPa | 949.9 ± 1.2
12776 kPa | 950 ± 1.2
12803 kPa | 949.8 ± 1.2
12834 kPa | 950.1 ± 1.2
12861 kPa | 950.1 ± 1.2
12894 kPa | 950 ± 1.2
12921 kPa | 950.1 ± 1.2
12948 kPa | 950 ± 1.2
12975 kPa | 950 ± 1.2
13007 kPa | 950.1 ± 1.2
13035 kPa | 950.2 ± 1.2
13069 kPa | 950.1 ± 1.2
13098 kPa | 950.1 ± 1.2
13127 kPa | 950.2 ± 1.2
13155 kPa | 950.2 ± 1.2
13189 kPa | 950.3 ± 1.2
13217 kPa | 950.3 ± 1.2
13246 kPa | 950.3 ± 1.2
13275 kPa | 950.3 ± 1.2
13311 kPa | 950.4 ± 1.2
